Results reported in ChEMBL document CHEMBL2074531, “Physicochemical parameters responsible for the affinity of methotrexate analogs for rat canalicular multispecific organic anion transporter (cMOAT/MRP2)” (Pharm Res, 2001).

Target: ATP-binding cassette sub-family C member 2 (Rattus norvegicus, UniProt Q63120)
Assay: TP_TRANSPORTER: inhibition of DNP-SG uptake in bile canalicular membrane vesicles from SD rat
Type: functional, cell membranes, Sprague-Dawley, Bile canalicular membrane vesicle

ATP-binding cassette sub-family C member 2, sequence (Q63120 whole entry): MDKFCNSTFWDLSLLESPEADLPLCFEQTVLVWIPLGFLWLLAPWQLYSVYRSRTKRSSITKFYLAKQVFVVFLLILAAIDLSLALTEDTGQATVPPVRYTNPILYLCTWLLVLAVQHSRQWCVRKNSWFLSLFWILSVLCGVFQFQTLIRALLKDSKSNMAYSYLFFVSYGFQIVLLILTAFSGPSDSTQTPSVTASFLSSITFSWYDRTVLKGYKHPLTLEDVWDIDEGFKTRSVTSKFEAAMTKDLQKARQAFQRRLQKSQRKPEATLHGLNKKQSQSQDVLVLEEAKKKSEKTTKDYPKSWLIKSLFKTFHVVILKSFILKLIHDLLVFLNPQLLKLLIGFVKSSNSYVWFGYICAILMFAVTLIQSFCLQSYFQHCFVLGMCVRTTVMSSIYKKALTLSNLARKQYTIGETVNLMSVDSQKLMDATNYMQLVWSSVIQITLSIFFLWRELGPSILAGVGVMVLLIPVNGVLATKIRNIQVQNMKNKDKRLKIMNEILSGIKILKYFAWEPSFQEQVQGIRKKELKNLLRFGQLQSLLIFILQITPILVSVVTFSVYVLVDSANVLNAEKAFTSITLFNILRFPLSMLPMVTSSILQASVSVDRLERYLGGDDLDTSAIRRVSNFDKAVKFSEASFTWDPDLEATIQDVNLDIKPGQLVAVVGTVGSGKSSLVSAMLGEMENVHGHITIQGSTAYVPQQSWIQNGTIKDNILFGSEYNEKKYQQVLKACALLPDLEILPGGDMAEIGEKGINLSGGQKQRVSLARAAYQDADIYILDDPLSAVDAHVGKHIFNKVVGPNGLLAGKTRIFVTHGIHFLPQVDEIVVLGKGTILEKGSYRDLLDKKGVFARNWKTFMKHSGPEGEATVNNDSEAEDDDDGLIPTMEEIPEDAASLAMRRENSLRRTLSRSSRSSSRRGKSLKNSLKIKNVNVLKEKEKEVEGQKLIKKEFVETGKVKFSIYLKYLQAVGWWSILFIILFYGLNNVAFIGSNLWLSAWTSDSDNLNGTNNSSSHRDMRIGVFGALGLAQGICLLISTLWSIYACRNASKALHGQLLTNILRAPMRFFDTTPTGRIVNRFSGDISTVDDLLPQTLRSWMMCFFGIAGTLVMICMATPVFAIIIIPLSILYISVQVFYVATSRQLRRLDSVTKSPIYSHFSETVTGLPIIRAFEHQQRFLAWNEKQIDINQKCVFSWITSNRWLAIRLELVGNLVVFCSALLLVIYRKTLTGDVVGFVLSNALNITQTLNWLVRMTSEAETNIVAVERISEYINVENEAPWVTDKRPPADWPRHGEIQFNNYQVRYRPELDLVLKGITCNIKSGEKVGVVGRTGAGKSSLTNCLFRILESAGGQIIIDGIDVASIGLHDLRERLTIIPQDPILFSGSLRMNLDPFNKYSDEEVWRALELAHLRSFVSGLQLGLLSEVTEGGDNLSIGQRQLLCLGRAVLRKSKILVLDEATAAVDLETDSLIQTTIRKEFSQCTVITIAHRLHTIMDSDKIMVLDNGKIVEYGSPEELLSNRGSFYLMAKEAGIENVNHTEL

SMILES	Ki
CN(Cc1cnc2nc(N)nc(N)c2n1)c1ccc(C(=O)NC(CCC(=O)NC(CCC(=O)N[C@@H](CCC(=O)O)C(=O)O)C(=O)O)C(=O)O)cc1 (stereo not given in full)	838 µM
CC(C)CC(NC(=O)c1ccc(N(C)Cc2cnc3nc(N)nc(N)c3n2)cc1)C(=O)O (stereo not given)	308 µM
CCN(Cc1cnc2nc(N)nc(N)c2n1)c1ccc(C(=O)NC(CCCNC(=O)c2ccccc2)C(=O)O)cc1 (stereo not given)	32.5 µM
Nc1nc(N)c2nc(CN3CCSc4cc(C(=O)N[C@@H](CCCC(=O)N[C@@H](CCC(=O)O)C(=O)O)C(=O)O)ccc43)cnc2n1	223 µM
CCCN(Cc1cnc2nc(N)nc(N)c2n1)c1ccc(C(=O)NC(CCC(=O)O)C(=O)O)cc1 (stereo not given)	154 µM
CC(C)N(Cc1cnc2nc(N)nc(N)c2n1)c1ccc(C(=O)N2C[C@H](O)C[C@H]2C(=O)O)cc1	784 µM
CN(Cc1cnc2nc(N)nc(N)c2n1)c1ccc(C(=O)N2C[C@H](O)C[C@H]2C(=O)O)cc1	> 1000 µM
CCC(C)C(NC(=O)c1ccc(N(C)Cc2cnc3nc(N)nc(N)c3n2)cc1)C(=O)O (stereo not given)	56.9 µM
Cc1cc(C(=O)NC(CCC(=O)O)C(=O)O)cc(C)c1N(C)Cc1cnc2nc(N)nc(N)c2n1 (stereo not given)	39.2 µM
C=CCN(Cc1cnc2nc(N)nc(N)c2n1)c1ccc(C(=O)NC(CCC(=O)O)C(=O)O)cc1 (stereo not given)	136 µM
CN(Cc1cnc2nc(N)nc(N)c2n1)c1ccc(C(=O)N[C@@H](CCC(=O)O)C(=O)O)cc1 [METHOTREXATE]	462 µM
CCCN(Cc1cnc2nc(N)nc(N)c2n1)c1ccc(C(=O)NC(CCCNC(=O)c2ccccc2)C(=O)O)cc1 (stereo not given)	11.4 µM
CC(C)N(Cc1cnc2nc(N)nc(N)c2n1)c1ccc(C(=O)NC(CCCNC(=O)c2ccccc2)C(=O)O)cc1 (stereo not given)	14.8 µM
CC(C)N(Cc1cnc2nc(N)nc(N)c2n1)c1ccc(C(=O)NC(CCC(=O)O)C(=O)O)cc1 (stereo not given) [ISOAMINOPTERIN]	173 µM
Cc1cc(C(=O)NC(CCCC(=O)O)C(=O)O)ccc1N(C)Cc1cnc2nc(N)nc(N)c2n1 (stereo not given)	133 µM
CN(Cc1cnc2nc(N)nc(N)c2n1)c1ccc(C(=O)NC(CCCNC(=O)c2ccccc2)C(=O)O)cc1 (stereo not given)	48.7 µM
CN(Cc1cnc2nc(N)nc(N)c2n1)c1ccc(C(=O)NC(CCC(=O)NC(CCC(=O)NC(CCC(=O)NC(CCC(=O)N[C@@H](CCC(=O)O)C(=O)O)C(=O)O)C(=O)O)C(=O)O)C(=O)O)cc1 (stereo not given in full)	501 µM

Second part, the compound after the results:

Ki	SMILES
98.3 µM	CCN(Cc1cnc2nc(N)nc(N)c2n1)c1ccc(C(=O)NC(CCC(=O)O)C(=O)O)cc1C (stereo not given)
173 µM	Cc1cc(C(=O)NC(CCC(=O)O)C(=O)O)cc2c1N(Cc1cnc3nc(N)nc(N)c3n1)CC2 (stereo not given)
137 µM	Nc1nc(N)c2nc(CN3CCSc4cc(C(=O)NC(CCC(=O)O)C(=O)O)ccc43)cnc2n1 (stereo not given)
382 µM	Cc1cc(C(=O)NC(CCC(=O)O)C(=O)O)ccc1NCc1cnc2nc(N)nc(N)c2n1 (stereo not given)
150 µM	Cc1cc(C(=O)NC(CCC(=O)O)C(=O)O)ccc1N(C)Cc1cnc2nc(N)nc(N)c2n1 (stereo not given)
204 µM	Nc1nc(N)c2nc(CN3CCOc4cc(C(=O)NC(CCCC(=O)O)C(=O)O)ccc43)cnc2n1 (stereo not given)
159 µM	Nc1nc(N)c2nc(CN3CCSc4cc(C(=O)NC(CCCC(=O)O)C(=O)O)ccc43)cnc2n1 (stereo not given)
311 µM	Nc1nc(N)c2nc(CN3CCOc4cc(C(=O)NC(CCC(=O)O)C(=O)O)ccc43)cnc2n1 (stereo not given)
